Source: paper PMC6946680, “Modulation of brain cation-Cl^− cotransport via the SPAK kinase inhibitor ZT-1a” (Nature Communications, 2020)
Several values for one entry are separate records, joined by “and”; a condition that tells them apart may be missing. Equal values may be shown once. Entries after “also recorded” stand apart in the source; their conditions may differ.

Assays:
[1] = system: mouse primary cortical neurons; experiment: Cell volume measurement (calcein-AM) under hyperosmotic stress, primary cortical neurons
GST–[T233E]SPAK kinase = biological target: T1, GST–[T233E]SPAK kinase (Homo sapiens, UniProt Q9UEW8, T231E); experiment: SPAK kinase assay with CATCHtide and IC50 determination; format: biochemical; conditions: for ZT-1a vs SPAK+MO25, kinase activity / ZT-1a vs SPAK, kinase activity: Fig S7b; for ZT-1a vs SPAK, kinase activity: SPAK alone
T1 construct: made in house; host or cells: E. coli
Description: II. Experimental procedures
1. Reagents and General methods
Tissue culture reagents were from Life Technologies. P81 phosphocellulose paper was from Whatman […]
and [γ-32P]-ATP was from Perkin Elmer. […] Protein G […]
sepharose was from Amersham. DNA constructs used for transfection were purified from Escherichia coli DH5α using Qiagen or Invitrogen plasmid Maxi kits according to the manufacturer's protocol. All DNA constructs were verified by DNA sequencing.
2. Plasmids, protein expression and purification
DNA clones were from the Division of Signal Transduction Therapy (University of Dundee). The SPAK proteins were expressed in E. Coli and purified as described previously 1.
3. SPAK kinase assays and IC50 determination
SPAK kinase assays employed CATCHtide (cation chloride co-transporter peptide substrate). Peptide kinase assays, performed in triplicate, were set up in a total volume of 50 μl containing 0.5 μg GST– […]
cpm/pmol) and the indicated concentrations of inhibitor dissolved in DMSO. After incubation for 30 min at 30°C, reactions were terminated by spotting 40 μl of the reaction mix onto P81 phosphocellulose paper and immersion in 50 mM phosphoric acid. The papers were washed extensively and incorporation of [γ-32P]ATP into CATCHtide was quantified by Cerenkov counting.
IC50 values were calculated with GraphPad Prism using non-linear regression analysis.
4. Fluorescence polarization […]
concentrations between 0.00001 to 1 mM. Data points are the means of three determinations, with error […]
A Supplemental Fig. 7 Effects of increasing concentrations of ZT-1a on SPAK activity in the absence […]
the absence or presence of five-fold molar excess of wild-type MO25α. b Kinetic data determined for B ZT-1a in the absence or presence of five-fold molar excess of wild-type MO25α. Data are means of […]
presence of wild-type MO25α.

Question: What does the source list for `Cc1cc(C(C#N)c2ccc(Cl)cc2)c(Cl)cc1NC(=O)c1cc(Cl)ccc1O` (stereo not drawn) [ZT-1a, 5-chloro-N-(5-chloro-4-((4-chlorophenyl)(cyano)methyl)-2-methylphenyl)-2-hydroxybenzamide]?
Answer: Cell water (relative change) ([1]; Time 35.0045): 1.2137; regulatory volume increase (RVI) response of primary cortical neurons ([1]; hyperosmotic stress 370 mOsm, ZT-1a 3 μM, BMT 10 μM): no RVI response; cell shrinkage of primary cortical neurons ([1]; hypertonic 370 mOsm/kg H2O, earlier manuscript version quoted in peer-review file): 87%; initial rate of cell shrinkage ([1]; hypertonic stress, earlier manuscript version quoted in peer-review file): 29 ± 9 % vol/min; neurons exhibiting RVI / cells analysed ([1]; hypertonicity-mediated osmotic shrinkage, three cultures): 0/49; change of SPAK IC50 values on addition of MO25α (GST–[T233E]SPAK kinase): not significantly altered; SPAK kinase activity signal (Fig S3 source data) (GST–[T233E]SPAK kinase; ATP 0.01 mM, inhibitor 1e-5 uM): 911 and 899 and 905; SPAK kinase activity signal (Fig S3 source data) (GST–[T233E]SPAK kinase; ATP 0.01 mM, inhibitor 0.0001 uM): 906 and 879 and 883; SPAK kinase activity signal (Fig S3 source data) (GST–[T233E]SPAK kinase; ATP 0.01 mM, inhibitor 0.001 uM): 901 and 899 and 907; SPAK kinase activity signal (Fig S3 source data) (GST–[T233E]SPAK kinase; ATP 0.01 mM, inhibitor 0.003 uM): 805; SPAK kinase activity signal (Fig S3 source data) (GST–[T233E]SPAK kinase; ATP 0.01 mM, inhibitor 0.03 uM): 855 and 847 and 825; SPAK kinase activity signal (Fig S3 source data) (GST–[T233E]SPAK kinase; ATP 0.01 mM, inhibitor 0.1 uM): 867 and 893 and 851; SPAK kinase activity signal (Fig S3 source data) (GST–[T233E]SPAK kinase; ATP 0.01 mM, inhibitor 0.3 uM): 813 and 804 and 787; SPAK kinase activity signal (Fig S3 source data) (GST–[T233E]SPAK kinase; ATP 0.01 mM, inhibitor 1 uM): 756 and 821 and 793; SPAK kinase activity signal (Fig S3 source data) (GST–[T233E]SPAK kinase; ATP 0.01 mM, inhibitor 3 uM): 663 and 688 and 705; SPAK kinase activity signal (Fig S3 source data) (GST–[T233E]SPAK kinase; ATP 0.01 mM, inhibitor 10 uM): 478 and 525 and 503; SPAK kinase activity signal (Fig S3 source data) (GST–[T233E]SPAK kinase; ATP 0.01 mM, inhibitor 100 uM): 456 and 325 and 371; SPAK kinase activity signal (Fig S3 source data) (GST–[T233E]SPAK kinase; ATP 0.01 mM, inhibitor 1000 uM): 220 and 194 and 213; SPAK kinase activity signal (Fig S3 source data) (GST–[T233E]SPAK kinase; ATP 0.1 mM, inhibitor 1e-5 uM): 902 and 887 and 849; SPAK kinase activity signal (Fig S3 source data) (GST–[T233E]SPAK kinase; ATP 0.1 mM, inhibitor 0.0001 uM): 867 and 845 and 874; SPAK kinase activity signal (Fig S3 source data) (GST–[T233E]SPAK kinase; ATP 0.1 mM, inhibitor 0.001 uM): 844 and 856 and 837; SPAK kinase activity signal (Fig S3 source data) (GST–[T233E]SPAK kinase; ATP 0.1 mM, inhibitor 0.03 uM): 798 and 815 and 804; SPAK kinase activity signal (Fig S3 source data) (GST–[T233E]SPAK kinase; ATP 0.1 mM, inhibitor 0.1 uM): 796 and 805 and 782; SPAK kinase activity signal (Fig S3 source data) (GST–[T233E]SPAK kinase; ATP 0.1 mM, inhibitor 0.3 uM): 796 and 786 and 754; SPAK kinase activity signal (Fig S3 source data) (GST–[T233E]SPAK kinase; ATP 0.1 mM, inhibitor 1 uM): 802 and 788 and 766; SPAK kinase activity signal (Fig S3 source data) (GST–[T233E]SPAK kinase; ATP 0.1 mM, inhibitor 3 uM): 706 and 686 and 718; SPAK kinase activity signal (Fig S3 source data) (GST–[T233E]SPAK kinase; ATP 0.1 mM, inhibitor 10 uM): 561 and 556 and 583; SPAK kinase activity signal (Fig S3 source data) (GST–[T233E]SPAK kinase; ATP 0.1 mM, inhibitor 100 uM): 226 and 309 and 284; SPAK kinase activity signal (Fig S3 source data) (GST–[T233E]SPAK kinase; ATP 0.1 mM, inhibitor 1000 uM): 187 and 106 and 158; SPAK kinase activity signal (Fig S3 source data) (GST–[T233E]SPAK kinase; ATP 1 mM, inhibitor 1e-5 uM): 880 and 891 and 864; SPAK kinase activity signal (Fig S3 source data) (GST–[T233E]SPAK kinase; ATP 1 mM, inhibitor 0.0001 uM): 892 and 902 and 916; SPAK kinase activity signal (Fig S3 source data) (GST–[T233E]SPAK kinase; ATP 1 mM, inhibitor 0.001 uM): 869 and 902 and 885; SPAK kinase activity signal (Fig S3 source data) (GST–[T233E]SPAK kinase; ATP 1 mM, inhibitor 0.03 uM): 812 and 786 and 753; SPAK kinase activity signal (Fig S3 source data) (GST–[T233E]SPAK kinase; ATP 1 mM, inhibitor 0.1 uM): 862 and 807 and 759; SPAK kinase activity signal (Fig S3 source data) (GST–[T233E]SPAK kinase; ATP 1 mM, inhibitor 0.3 uM): 768 and 789 and 736; SPAK kinase activity signal (Fig S3 source data) (GST–[T233E]SPAK kinase; ATP 1 mM, inhibitor 1 uM): 662 and 719 and 681; SPAK kinase activity signal (Fig S3 source data) (GST–[T233E]SPAK kinase; ATP 1 mM, inhibitor 3 uM): 641 and 604 and 563; SPAK kinase activity signal (Fig S3 source data) (GST–[T233E]SPAK kinase; ATP 1 mM, inhibitor 10 uM): 554 and 604 and 587; SPAK kinase activity signal (Fig S3 source data) (GST–[T233E]SPAK kinase; ATP 1 mM, inhibitor 100 uM): 453 and 345 and 405; SPAK kinase activity signal (Fig S3 source data) (GST–[T233E]SPAK kinase; ATP 1 mM, inhibitor 1000 uM): 222 and 164 and 186; change of SPAK IC50 values with increasing ATP concentration (GST–[T233E]SPAK kinase; ATP between 0.01 and 1 mM): unchanged; also recorded: unaffected by changing [ATP]; ZT-1a vs SPAK+MO25, kinase activity (GST–[T233E]SPAK kinase; ZT-1a 1e-5 uM): 401897 C.P.M and 396529 C.P.M and 387112 C.P.M; ZT-1a vs SPAK+MO25, kinase activity (GST–[T233E]SPAK kinase; ZT-1a 0.0001 uM): 393641 C.P.M and 402385 C.P.M and 384718 C.P.M; ZT-1a vs SPAK+MO25, kinase activity (GST–[T233E]SPAK kinase; ZT-1a 0.001 uM): 392612 C.P.M and 367664 C.P.M and 337143 C.P.M; ZT-1a vs SPAK+MO25, kinase activity (GST–[T233E]SPAK kinase; ZT-1a 0.003 uM): 363431 C.P.M and 388438 C.P.M and 371694 C.P.M; ZT-1a vs SPAK+MO25, kinase activity (GST–[T233E]SPAK kinase; ZT-1a 0.01 uM): 359080 C.P.M and 382836 C.P.M and 362174 C.P.M; ZT-1a vs SPAK+MO25, kinase activity (GST–[T233E]SPAK kinase; ZT-1a 0.03 uM): 408327 C.P.M and 384102 C.P.M and 373519 C.P.M; ZT-1a vs SPAK+MO25, kinase activity (GST–[T233E]SPAK kinase; ZT-1a 0.1 uM): 381538 C.P.M and 398205 C.P.M and 371203 C.P.M; ZT-1a vs SPAK+MO25, kinase activity (GST–[T233E]SPAK kinase; ZT-1a 0.3 uM): 371591 C.P.M and 394205 C.P.M and 361553 C.P.M; ZT-1a vs SPAK+MO25, kinase activity (GST–[T233E]SPAK kinase; ZT-1a 1 uM): 365869 C.P.M and 359432 C.P.M and 371032 C.P.M; ZT-1a vs SPAK+MO25, kinase activity (GST–[T233E]SPAK kinase; ZT-1a 3 uM): 354403 C.P.M and 355755 C.P.M and 331937 C.P.M; ZT-1a vs SPAK+MO25, kinase activity (GST–[T233E]SPAK kinase; ZT-1a 10 uM): 325521 C.P.M and 299490 C.P.M and 282196 C.P.M; ZT-1a vs SPAK+MO25, kinase activity (GST–[T233E]SPAK kinase; ZT-1a 100 uM): 119789 C.P.M and 97606 C.P.M and 83035 C.P.M; ZT-1a vs SPAK+MO25, kinase activity (GST–[T233E]SPAK kinase; ZT-1a 1000 uM): 31455 C.P.M and 51772 C.P.M and 49172 C.P.M; ZT-1a vs SPAK, kinase activity (GST–[T233E]SPAK kinase; ZT-1a 1e-5 uM): 48785 C.P.M and 47183 C.P.M and 49610 C.P.M; ZT-1a vs SPAK, kinase activity (GST–[T233E]SPAK kinase; ZT-1a 0.0001 uM): 46475 C.P.M and 45108 C.P.M and 47685 C.P.M; ZT-1a vs SPAK, kinase activity (GST–[T233E]SPAK kinase; ZT-1a 0.001 uM): 47080 C.P.M and 46113 C.P.M and 46420 C.P.M; ZT-1a vs SPAK, kinase activity (GST–[T233E]SPAK kinase; ZT-1a 0.003 uM): 44660 C.P.M and 45821 C.P.M and 45595 C.P.M; ZT-1a vs SPAK, kinase activity (GST–[T233E]SPAK kinase; ZT-1a 0.01 uM): 45890 C.P.M and 44094 C.P.M and 44440 C.P.M; ZT-1a vs SPAK, kinase activity (GST–[T233E]SPAK kinase; ZT-1a 0.03 uM): 44825 C.P.M and 43187 C.P.M and 44890 C.P.M; ZT-1a vs SPAK, kinase activity (GST–[T233E]SPAK kinase; ZT-1a 0.1 uM): 44275 C.P.M and 42127 C.P.M and 44780 C.P.M; ZT-1a vs SPAK, kinase activity (GST–[T233E]SPAK kinase; ZT-1a 0.3 uM): 44230 C.P.M and 41993 C.P.M and 43780 C.P.M; ZT-1a vs SPAK, kinase activity (GST–[T233E]SPAK kinase; ZT-1a 1 uM): 43840 C.P.M and 42097 C.P.M and 44510 C.P.M; ZT-1a vs SPAK, kinase activity (GST–[T233E]SPAK kinase; ZT-1a 3 uM): 41230 C.P.M and 39714 C.P.M and 40580 C.P.M; ZT-1a vs SPAK, kinase activity (GST–[T233E]SPAK kinase; ZT-1a 10 uM): 29580 C.P.M and 31008 C.P.M and 33855 C.P.M; ZT-1a vs SPAK, kinase activity (GST–[T233E]SPAK kinase; ZT-1a 100 uM): 14995 C.P.M and 17307 C.P.M and 16430 C.P.M; ZT-1a vs SPAK, kinase activity (GST–[T233E]SPAK kinase; ZT-1a 1000 uM): 5830 C.P.M and 7520 C.P.M and 9285 C.P.M; IC50 (GST–[T233E]SPAK kinase; absence of wild-type MO25α): 40.5 µM; IC50 (GST–[T233E]SPAK kinase; presence of five-fold molar excess of wild-type MO25α): 41.3 µM
